Assay [1] has as its target T1, hMOR-1 (Homo sapiens, UniProt P35372).
T1 construct: purchased Amersham Biosciences; host or cells: stably transfected CHO cells (membrane preparation)
The assay can be described thus: Opioid receptor competitive binding assay, MOR (3H-DAMGO). The note with it: Ki MOR, 3H-DAMGO, hMOR-1 stably transfected into CHO cells. The procedure:
(§1) For selected compounds, Ki for MOR, DOR, and KOR were determined according to the following procedure: Recombinant hMOR-1 membrane preps from stably transfected CHO cells and recombinant hDOR-1 membrane preps from stably transfected HEK-293 cells were purchased from Amersham Biosciences. Guinea pig cerebellum preparations were used for KOR assays.
(§2) Each microassay from an assay plate was filtered through an individual well of a Packard GF/B 96-well filter plate (glass fiber filter) to collect the membranes. Each well was washed twice with 200 μL of ice cold wash buffer (50 mM Tris, pH 7.4). The filter plate was allowed to dry overnight, the back was sealed, and Packard Bioscience Microscint PS scintillation fluid (75 μL) was added to each well, which was then counted for ^3H for 2 minutes using a Packard Bioscience TopCount scintillation counter plate reader.
(§3) Each compound was assayed at 8 concentrations, using half-log serial dilutions. Each concentration was tested in triplicate, and the ^3H cpm were averaged.
(§4) This concentration was determined experimentally by scintillation counting an aliquot of the radioligand stock solution used in the assay.
(§5) Kd=the binding constant for the radioligand.
(§6) This triplicate experiment was repeated three times for the MOR and twice for the DOR and the KOR.

Assay [2] concerns the target T2, hDOR-1 (Homo sapiens, UniProt P41143).
T2 construct: purchased Amersham Biosciences; host or cells: stably transfected HEK-293 cells (membrane preparation)
In words: Opioid receptor competitive binding assay, DOR. Conditions: for Ki DOR/Ki MOR: Table 13, selectivity for MOR versus DOR (footnote: 3H-DPDPE, hDOR-1). On the procedure:
as §1, §2, §3, §4, §5, §6

Assay [3] addresses T3, KOR (Cavia porcellus, UniProt P41144).
T3 construct: from tissue; host or cells: guinea pig cerebellum preparation
The assay can be described thus: Opioid receptor competitive binding assay, KOR (3H-U-69,593). Further details: species or system guinea pig. The note with it: for Ki KOR/Ki MOR: Table 13, selectivity for MOR versus KOR. On the procedure: as §1, §2, §3, §6

For assay [4], the target named is T1, hMOR-1. The assay can be described thus: MOR GTP-γ-S assay (MOR activation). The class given is biochemical. The note with it: CHO membranes with hMOR-1; for % GTP-γ-S bound: Table 16, compound 10 μM, percentage of DAMGO induced GTP-γ-35S specific binding; for % GTP-γ-35S bound: Table 15, compound 10 mM (footnote), percentage of DAMGO induced GTP-g-35S specific binding. On the procedure:
MOR GTP-γ-S assay was run in the same 200 μL, 96 well format as the binding assay. Each microassay contained experimental compound, 0.04 nM GTP-γ-^35S, 9 μM GDP, and about 0.02 nM MOR (from stably transfected CHO cells), in assay buffer (50 mM Tris-HCl, 3 mM MgCl2, 0.2 mM EGTA, 100 mM NaCl, pH 7.4). The assays were incubated for two to three hours at room temperature, then filtered onto a filter plate. The plate was dried; scintillation fluid was added, and the wells were counted for ^35S. Blank assays were run to determine non-specific binding. […] The results were averaged; the non-specific counts were subtracted, and the resulting value was expressed as a percent of the value obtained for DAMGO. The error reported is two standard deviations from the mean of the quadruplicate experiment. The values were compared using one way Anova with Tukey's post-hoc analysis.

The mark [5] stands for this setting: Table 4, errors 95% confidence interval.
Setting [6] is: Ki DOR, Table 7, 3H-diprenorphine, hDOR-1 stably transfected into HEK-293 cells, errors two standard deviations.
Where [7] appears, read: Ki KOR, Table 10, 3H-U-69,593, guinea pig cerebellum preparation, errors two standard deviations.

Results on 14 compounds are retold here after patent publication US7223888B2, “Mu opioid receptor ligands: methods of use and synthesis” (President and Fellows of Harvard College, priority 2002, dated 2007).

Where two headings read alike, the source gives them in different places.

As a reminder, the Ki is the dissociation constant of the complex between target and ligand, obtained from inhibition or displacement. On to `NC(=O)C(Cc1ccccc1)NC(=O)C(Cc1ccccc1)C(O)/C=C/C(O)CC(N)Cc1ccc(O)cc1` (single isomer, unassigned) [(R, R, S, S)-43, 7-(1-Carbamoyl-2-phenyl-ethylcarbamoyl)-3,6-dihydroxy-1-(4-hydroxy-benzyl)-8-phenyl-oct-4-enyl-ammonium], for which the Ki in assay [1] (Table 5) turned out to be 38 ± 13 nM; in assay [2] (read-out: Ki DOR), 1200 ± 100 nM; in assay [3] (read-out: Ki KOR), 880 ± 550 nM. Moreover, the “% GTP-γ-S bound” value in assay [4] amounted to 30 ± 6%.

On to `Cc1cc(O)cc(C)c1CC(N)C(O)C/C=C/C(O)C(Cc1ccccc1)C(=O)NC(Cc1ccccc1)C(N)=O` (single isomer, unassigned) [(S,S,S,R)-25, 7-(1-Carbamoyl-2-phenyl-ethylcarbamoyl)-2,6-dihydroxy-1-(4-hydroxy-2,6-dimethyl-benzyl)-8-phenyl-oct-4-enyl-ammonium], for which the Ki in assay [1] (setting [5]) amounted to 0.17 ± 0.07 nM; in assay [2] (setting [6]), 40 ± 1 nM; in assay [3] (setting [7]), 22 ± 9 nM. For the same compound, in assay [2], the “Ki DOR/Ki MOR” value came to 230. In assay [3], the “Ki KOR/Ki MOR” value is 130. Further, the “% GTP-γ-35S bound” value in assay [4] came to 35 ± 5%.

In the case of `Cc1cc(O)cc(C)c1CC(N)C(O)C/C=C/C(O)C(Cc1ccccc1)C(=O)NC(Cc1ccccc1)C(N)=O` (single isomer, unassigned) [(S,R,S,R)-25, 7-(1-Carbamoyl-2-phenyl-ethylcarbamoyl)-2,6-dihydroxy-1-(4-hydroxy-2,6-dimethyl-benzyl)-8-phenyl-oct-4-enyl-ammonium], the results for the Ki in assay [1] (setting [5]), in assay [2] (setting [6]) and in assay [3] (setting [7]) were 1.2 ± 0.3 nM, 46 ± 16 nM and 15 ± 8 nM, respectively. In addition, the “Ki DOR/Ki MOR” value in assay [2] came to 38. Further, in assay [3], the “Ki KOR/Ki MOR” value was 13. The “% GTP-γ-35S bound” value in assay [4] is reported as 14 ± 3%.

In the case of `Cc1cc(O)cc(C)c1CC(N)C(O)C/C=C/C(O)C(Cc1ccccc1)C(=O)NCCc1ccccc1` (single isomer, unassigned) [(S,R,S,R)-26, 2,6-Dihydroxy-1-(4-hydroxy-2,6-dimethyl-benzyl)-7-phenethylcarbamoyl-8-phenyl-oct-4-enyl-ammonium], the Ki was found to be 0.24 ± 0.05 nM in assay [1] (setting [5]), 123 ± 8 nM in assay [2] (setting [6]) and 51 ± 1 nM in assay [3] (setting [7]). In addition, the “Ki DOR/Ki MOR” value in assay [2] is given as 510. In addition, the “Ki KOR/Ki MOR” value in assay [3] is 210. In addition, in assay [4], the “% GTP-γ-35S bound” value was 49 ± 4%.

Regarding `NC(=O)C(Cc1ccccc1)NC(=O)C(Cc1ccccc1)C(O)/C=C/C(O)CC(N)Cc1ccc(O)cc1` (single isomer, unassigned) [(S, R, R, S)-43, 7-(1-Carbamoyl-2-phenyl-ethylcarbamoyl)-3,6-dihydroxy-1-(4-hydroxy-benzyl)-8-phenyl-oct-4-enyl-ammonium], the Ki came to 28 ± 6 nM in assay [1] (Table 5), 2500 ± 3000 nM in assay [2] (read-out: Ki DOR) and 1200 ± 600 nM in assay [3] (read-out: Ki KOR). Besides, in assay [4], the “% GTP-γ-S bound” value turned out to be 48 ± 8%.

Turning to `Cc1cc(O)cc(C)c1CC(N)C(O)C/C=C/C(O)C(Cc1ccccc1)C(=O)NCCc1ccccc1` (single isomer, unassigned) [(S,R,R,R)-26, 2,6-Dihydroxy-1-(4-hydroxy-2,6-dimethyl-benzyl)-7-phenethylcarbamoyl-8-phenyl-oct-4-enyl-ammonium], the Ki came out at 0.72 ± 0.26 nM in assay [1] (setting [5]), 66 ± 1 nM in assay [2] (setting [6]) and 69 ± 20 nM in assay [3] (setting [7]). Moreover, the “Ki DOR/Ki MOR” value in assay [2] is on record as 91. In addition, in assay [3], the “Ki KOR/Ki MOR” value worked out at 96. Besides, the “% GTP-γ-35S bound” value in assay [4] was found to be 27 ± 9%.

With `Cc1cc(O)cc(C)c1CC(N)C(O)C/C=C/C(O)C(Cc1ccccc1)C(=O)NC(Cc1ccccc1)C(N)=O` (single isomer, unassigned) [(S,R,R,R)-25, 7-(1-Carbamoyl-2-phenyl-ethylcarbamoyl)-2,6-dihydroxy-1-(4-hydroxy-2,6-dimethyl-benzyl)-8-phenyl-oct-4-enyl-ammonium], the Ki is 1.6 ± 0.9 nM in assay [1] (setting [5]), 85 ± 13 nM in assay [2] (setting [6]) and 25 ± 14 nM in assay [3] (setting [7]). Also, the “Ki DOR/Ki MOR” value in assay [2] was 53. Further, in assay [3], the “Ki KOR/Ki MOR” value is listed as 16. In addition, the “% GTP-γ-35S bound” value in assay [4] came to 43 ± 9%.

Consider `NC(=O)C(Cc1ccccc1)NC(=O)C(Cc1ccccc1)C(O)/C=C/C(O)CC(N)Cc1ccc(O)cc1` (single isomer, unassigned) [(S, R, S, R)-43, 7-(1-Carbamoyl-2-phenyl-ethylcarbamoyl)-3,6-dihydroxy-1-(4-hydroxy-benzyl)-8-phenyl-oct-4-enyl-ammonium], for which the Ki in assay [1] (Table 5) was found to be 32 ± 6 nM; in assay [2] (read-out: Ki DOR), 740 ± 40 nM; in assay [3] (read-out: Ki KOR), 290 ± 100 nM. In assay [4], the “% GTP-γ-S bound” value was 37 ± 7%.

In the case of `NC(=O)C(Cc1ccccc1)NC(=O)C(Cc1ccccc1)C(O)/C=C/C(O)CC(N)Cc1ccc(O)cc1` (single isomer, unassigned) [(R, S, R, R)-43, 7-(1-Carbamoyl-2-phenyl-ethylcarbamoyl)-3,6-dihydroxy-1-(4-hydroxy-benzyl)-8-phenyl-oct-4-enyl-ammonium], the results for the Ki in assay [1] (Table 5), in assay [2] (read-out: Ki DOR) and in assay [3] (read-out: Ki KOR) were 20 ± 3 nM, 2500 ± 300 nM and 270 ± 30 nM, respectively. In addition, in assay [4], the “% GTP-γ-S bound” value came out at 68 ± 10%.

With `NC(=O)C(Cc1ccccc1)NC(=O)C(Cc1ccccc1)C(O)/C=C/C(O)CC(N)Cc1ccc(O)cc1` (single isomer, unassigned) [(S, R, S, S)-43, 7-(1-Carbamoyl-2-phenyl-ethylcarbamoyl)-3,6-dihydroxy-1-(4-hydroxy-benzyl)-8-phenyl-oct-4-enyl-ammonium], the figures for the Ki in assay [1] (Table 5), in assay [2] (read-out: Ki DOR) and in assay [3] (read-out: Ki KOR) were 42 ± 5 nM, 2500 ± 300 nM and 3100 ± 2600 nM, respectively. The “% GTP-γ-S bound” value in assay [4] amounted to 57 ± 12%.

Regarding `Cc1cc(O)cc(C)c1CC(N)C(O)C/C=C/C(O)C(Cc1ccccc1)C(=O)OC(CO)Cc1ccccc1` [(S,S,S,R)-30, 7-(1-Benzyl-2-hydroxy-ethoxycarbonyl)-2,6-dihydroxy-1-(4-hydroxy-2,6-dimethyl-benzyl)-8-phenyl-oct-4-enyl-ammonium], the values for the Ki in assay [1] (setting [5]), in assay [2] (setting [6]) and in assay [3] (setting [7]) were 0.44 ± 0.01 nM, 17 ± 6 nM and 85 ± 1 nM, respectively. In addition, the “Ki DOR/Ki MOR” value in assay [2] is given as 39. Moreover, in assay [3], the “Ki KOR/Ki MOR” value is given as 190. The “% GTP-γ-35S bound” value in assay [4] came to 62 ± 4%.

In the case of `Cc1cc(O)cc(C)c1CC(N)C(O)C/C=C/C(O)C(Cc1ccccc1)C(=O)NC(Cc1ccccc1)C(N)=O` (single isomer, unassigned) [(S,S,R,S)-25, 7-(1-Carbamoyl-2-phenyl-ethylcarbamoyl)-2,6-dihydroxy-1-(4-hydroxy-2,6-dimethyl-benzyl)-8-phenyl-oct-4-enyl-ammonium], the results for the Ki in assay [1] (setting [5]), in assay [2] (setting [6]) and in assay [3] (setting [7]) were 1.2 ± 0.4 nM, 230 ± 20 nM and 50 ± 16 nM, respectively. The “Ki DOR/Ki MOR” value in assay [2] was 190. Further, the “Ki KOR/Ki MOR” value in assay [3] was determined as 41. In assay [4], the “% GTP-γ-35S bound” value was found to be 32 ± 5%.

Regarding `Cc1cc(O)cc(C)c1CC(N)C(O)C/C=C/C(O)C(Cc1ccccc1)C(=O)NC(CO)Cc1ccccc1` [(S,S,S,R)-27], the Ki in assay [1] (setting [5]) came out at 0.16 ± 0.06 nM; in assay [2] (setting [6]), 54 ± 8 nM; in assay [3] (setting [7]), 69 ± 14 nM. Besides, in assay [4], the “% GTP-γ-35S bound” value was determined as 44 ± 6%.

With `Cc1cc(O)cc(C)c1CC(N)C(O)C/C=C/C(O)C(Cc1ccccc1)C(=O)NC(CN)Cc1ccccc1` [(S,S,S,R)-28], the inhibitory constant (Ki) worked out at 0.45 ± 0.05 nM in assay [1] (setting [5]) and 21 ± 4 nM in assay [2] (setting [6]). Moreover, in assay [4], the “% GTP-γ-35S bound” value is listed as 47 ± 5%.
